Source: the supplement of paper PMC10307832

Columns and labels:
Assay in all cases: relative viability (nuclei count vs DMSO), 5 days (fraction); higher = more cells survive
[1] = tested on: HARA
Outline: (§1)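 The day after seeding in 1536-well plates, lung cancer cell lines were treated by pin tool with a single drug, or with a fixed anchor-drug dose together with five library-drug doses (not always all listed) in √10 steps. After 5 days, a combined fix-and-stain solution (final 0.05% Triton X-100, 1% formaldehyde, 1 ug/ml Hoechst) was added. Nuclei counted on 4× images gave relative viability as treated counts over vehicle counts, reported as the median of duplicate plates.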

[2] = tested on: NCI-H441
Outline: as §1

[3] = tested on: NCI-H2126
Outline: as §1

[4] = tested on: NCI-H2023
Outline: as §1

[5] = tested on: HCC-15
Outline: as §1

[6] = tested on: A-427
Outline: as §1

[7] = tested on: NCI-H1648
Outline: as §1

[8] = tested on: SW 1573
Outline: as §1

[9] = tested on: LCLC-97TM1
Outline: as §1

[10] = tested on: NCI-H1734
Outline: as §1

[11] = tested on: LOU-NH91
Outline: as §1

[12] = tested on: COR-L23
Outline: as §1

[13] = tested on: HCC-366
Outline: as §1

[14] = tested on: RERF-LC-KJ
Outline: as §1

[15] = tested on: NCI-H460
Outline: as §1

[16] = tested on: NCI-H650
Outline: as §1

[17] = tested on: NCI-H1650
Outline: as §1

[18] = tested on: NCI-H2009
Outline: as §1

[19] = tested on: LCLC-103H
Outline: as §1

[20] = tested on: HCC-78
Outline: as §1

[21] = tested on: 201T
Outline: as §1

[22] = tested on: HCC-44
Outline: as §1

[23] = tested on: ChaGo-K-1
Outline: as §1

[24] = tested on: NCI-H1993
Outline: as §1

SMILES: CCCCCCCCCCCC1=C(O)C(=O)C=C(O)C1=O [Embelin] + CC(=O)Nc1cccc(-n2c(=O)n(C3CC3)c(=O)c3c(Nc4ccc(I)cc4F)n(C)c(=O)c(C)c32)c1 [Trametinib] (partner 0.02 µM)
- relative viability ([1]; first compound 0.08 µM): 0.785
- relative viability ([1]; first compound 0.8 µM): 1.05
- relative viability ([1]; first compound 2.53 µM): 0.637
- relative viability ([1]; first compound 8 µM): 0.536
- relative viability ([2]; first compound 0.08 µM): 0.399
- relative viability ([2]; first compound 0.8 µM): 0.584
- relative viability ([2]; first compound 2.53 µM): 0.552
- relative viability ([2]; first compound 8 µM): 0.465
- relative viability ([3]; first compound 0.08 µM): 0.495
- relative viability ([3]; first compound 0.8 µM): 0.548
- relative viability ([3]; first compound 2.53 µM): 0.553
- relative viability ([3]; first compound 8 µM): 0.546
- relative viability ([4]; first compound 0.08 µM): 0.568
- relative viability ([4]; first compound 0.8 µM): 0.654
- relative viability ([4]; first compound 2.53 µM): 0.613
- relative viability ([4]; first compound 8 µM): 0.495
- relative viability ([5]; first compound 0.08 µM): 0.366
- relative viability ([5]; first compound 0.8 µM): 0.435
- relative viability ([5]; first compound 2.53 µM): 0.345
- relative viability ([5]; first compound 8 µM): 0.383
- relative viability ([6]; first compound 0.08 µM): 0.732
- relative viability ([6]; first compound 0.8 µM): 0.785
- relative viability ([6]; first compound 2.53 µM): 0.7
- relative viability ([6]; first compound 8 µM): 0.624
- relative viability ([7]; first compound 0.08 µM): 0.53
- relative viability ([7]; first compound 0.8 µM): 0.572
- relative viability ([7]; first compound 2.53 µM): 0.524
- relative viability ([7]; first compound 8 µM): 0.596
- relative viability ([8]; first compound 0.08 µM): 0.604
- relative viability ([8]; first compound 0.8 µM): 0.636
- relative viability ([8]; first compound 2.53 µM): 0.625
- relative viability ([8]; first compound 8 µM): 0.603
- relative viability ([9]; first compound 0.08 µM): 0.201
- relative viability ([9]; first compound 0.8 µM): 0.18
- relative viability ([9]; first compound 2.53 µM): 0.232
- relative viability ([9]; first compound 8 µM): 0.184
- relative viability ([10]; first compound 0.08 µM): 0.686
- relative viability ([10]; first compound 0.8 µM): 0.789
- relative viability ([10]; first compound 2.53 µM): 0.777
- relative viability ([10]; first compound 8 µM): 0.689
- relative viability ([11]; first compound 0.08 µM): 0.785
- relative viability ([11]; first compound 0.8 µM): 0.831
- relative viability ([11]; first compound 2.53 µM): 0.828
- relative viability ([11]; first compound 8 µM): 0.805
- relative viability ([12]; first compound 0.08 µM): 0.562
- relative viability ([12]; first compound 0.8 µM): 0.689
- relative viability ([12]; first compound 2.53 µM): 0.653
- relative viability ([12]; first compound 8 µM): 0.608
- relative viability ([13]; first compound 0.08 µM): 0.385
- relative viability ([13]; first compound 0.8 µM): 0.431
- relative viability ([13]; first compound 2.53 µM): 0.446
- relative viability ([13]; first compound 8 µM): 0.326
- relative viability ([14]; first compound 0.08 µM): 0.871
- relative viability ([14]; first compound 0.8 µM): 0.977
- relative viability ([14]; first compound 2.53 µM): 0.896
- relative viability ([14]; first compound 8 µM): 0.853
- relative viability ([15]; first compound 0.08 µM): 0.173
- relative viability ([15]; first compound 0.8 µM): 0.202
- relative viability ([15]; first compound 2.53 µM): 0.151
- relative viability ([15]; first compound 8 µM): 0.112
- relative viability ([16]; first compound 0.08 µM): 0.977
- relative viability ([16]; first compound 0.8 µM): 1.47
- relative viability ([16]; first compound 2.53 µM): 1.02
- relative viability ([16]; first compound 8 µM): 0.987
- relative viability ([17]; first compound 0.08 µM): 0.713
- relative viability ([17]; first compound 0.8 µM): 0.703
- relative viability ([17]; first compound 2.53 µM): 0.675
- relative viability ([17]; first compound 8 µM): 0.703
- relative viability ([18]; first compound 0.08 µM): 0.335
- relative viability ([18]; first compound 0.8 µM): 0.306
- relative viability ([18]; first compound 2.53 µM): 0.268
- relative viability ([18]; first compound 8 µM): 0.296
- relative viability ([19]; first compound 0.08 µM): 0.718
- relative viability ([19]; first compound 0.8 µM): 0.742
- relative viability ([19]; first compound 2.53 µM): 0.674
- relative viability ([19]; first compound 8 µM): 0.698
- relative viability ([20]; first compound 0.08 µM): 0.834
- relative viability ([20]; first compound 0.8 µM): 0.831
- relative viability ([20]; first compound 2.53 µM): 0.752
- relative viability ([20]; first compound 8 µM): 0.696
- relative viability ([21]; first compound 0.08 µM): 0.698
- relative viability ([21]; first compound 0.8 µM): 0.726
- relative viability ([21]; first compound 2.53 µM): 0.731
- relative viability ([21]; first compound 8 µM): 0.731
- relative viability ([22]; first compound 0.08 µM): 1.04
- relative viability ([22]; first compound 0.8 µM): 1.08
- relative viability ([22]; first compound 2.53 µM): 1.1
- relative viability ([22]; first compound 8 µM): 1.08
- relative viability ([23]; first compound 0.08 µM): 0.966
- relative viability ([23]; first compound 0.8 µM): 0.871
- relative viability ([23]; first compound 2.53 µM): 0.963
- relative viability ([23]; first compound 8 µM): 0.922
- relative viability ([24]; first compound 0.08 µM): 0.513
- relative viability ([24]; first compound 0.8 µM): 0.512
- relative viability ([24]; first compound 2.53 µM): 0.584
- relative viability ([24]; first compound 8 µM): 0.498
